The source of these data is article PMC3503517 (Chembiochem : a European journal of chemical biology, 2011).

Read-outs that look alike come from different tables or passages of the source.

Data set [1] concerns HeLa cells. The data set is described as follows: BrdC/BrdCTP incorporation into DNA detected with anti-BrdU antibody. Type of data set: cell-based, human. Conditions: one-hour treatment.
Data set [2] deals with T1, human DCTPP1 (Homo sapiens, UniProt Q9H773).
T1 sequence (Q9H773 1-170): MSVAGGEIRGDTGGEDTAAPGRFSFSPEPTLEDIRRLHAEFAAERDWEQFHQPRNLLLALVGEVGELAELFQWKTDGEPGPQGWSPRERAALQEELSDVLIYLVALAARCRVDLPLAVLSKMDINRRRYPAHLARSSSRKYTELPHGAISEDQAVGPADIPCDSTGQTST
Type of data set: biochemical.

For data set [3], the system named is HeLa cells. Description: Cytotoxicity. Type of data set: cell-based. Conditions: Homo sapiens, 48 h, read-out: IC50 (cell number).
The target of data set [4] is T1, human DCTPP1. Conditions: ITC, 25°C, value ± SD.
The data set “native gel or EMSA + SEC” concerns the molecule itself. The data set is described as follows: native gel or EMSA + SEC.

Turning to `Nc1nc(=O)n([C@H]2C[C@H](O)[C@@H](CO)O2)cc1Br` [BrdC], the “BrdU incorporation (fraction of anti-BrdU reactive cells)” value in the data set with HeLa cells [1] was 30–43 % of cells.
Turning to `Nc1nc(=O)n([C@H]2C[C@H](O)[C@@H](COP(=O)(O)OP(=O)(O)OP(=O)(O)O)O2)cc1I` [5-I-dCTP], at human DCTPP1 [2] (as substrate of DCTPP1), the Km was 239 µM and the kcat is 0.000864 s⁻¹.
Turning to `Nc1ccn([C@@H]2O[C@H](COP(=O)(O)OP(=O)(O)OP(=O)(O)O)[C@@H](O)C2(F)F)c(=O)n1` [gemcitabine triphosphate], the “activity as a DCTPP1 substrate” value on human DCTPP1 [2] (kinetic assays, data not shown) is given as “did not show activity as a DCTPP1 substrate”.
With `CC(C)[C@]12O[C@H]1[C@@H]1O[C@]13[C@]1(O[C@H]1C[C@H]1C4=C(CC[C@@]13C)C(=O)OC4)[C@@H]2O` [compound 1, triptolide], the IC50 in the data set on HeLa cells [3] lay in the range of 7 to 10 nM. In addition, the figures for the ΔH on human DCTPP1 [4] and at human DCTPP1 [4] (listed as triptolide) were -19.98 ± 1.70 kcal/mol and “–19.98 ± 1.70 kcal/mol”, respectively. Further, the “n (binding stoichiometry)” value at human DCTPP1 [4] (per DCTPP1 monomer) is listed as 0.601 ± 0.075.
Consider `Nc1nc(=O)n([C@H]2C[C@H](O)[C@@H](COP(=O)(O)OP(=O)(O)OP(=O)(O)O)O2)cc1Br` [BrdCTP], for which the “BrdU incorporation (fraction of anti-BrdU reactive cells)” value with HeLa cells [1] is given as 30–43 % of cells.

B1: recombinant human dCTP pyrophosphatase 1 (DCTPP1), GST tag cleaved off (enzyme, UniProt Q9H773 1-170, looked up)
chain: MSVAGGEIRGDTGGEDTAAPGRFSFSPEPTLEDIRRLHAEFAAERDWEQFHQPRNLLLALVGEVGELAELFQWKTDGEPGPQGWSPRERAALQEELSDVLIYLVALAARCRVDLPLAVLSKMDINRRRYPAHLARSSSRKYTELPHGAISEDQAVGPADIPCDSTGQTST
For B1, the “stoichiometry N” value in the data set “native gel or EMSA + SEC” was determined as 2.
